Experimental data published in patent US5030760A, “Tetrahydrophthalimides, and their production and use” (Sumitomo Chemical Company, Ltd., priority 1981, dated 1991).

Key:
barnyardgrass [1] = assay: Test Example 7, flooded paddy pot dripping, herbicidal activity; assay type: in vivo, Echinochloa crus-galli; details: 3 weeks; further: ranges in brackets are in %
Method: (§1) The application of the tetrahydrophthalimides (I) as herbicides will be illustratively shown in the following Examples wherein the phytotoxicity to cultivated plants and the herbicidal activity on weeds were evaluated as follows: the aerial parts of the test plants were cut off and weighed (fresh weight); the percentage of the fresh weight of the treated plant to that of the untreated plant was calculated with the latter fresh weight taken as 100; and the crop damage and the herbicidal activity were evaluated by the standard given in the table below. The rating values of phytotoxicity, 0 and 1, and those of herbicidal effect, 5 and 4, are generally regarded as satisfactory to protect cultivated plants and control weeds, respectively. The rating values in the paddy field test alone were calculated from the dry weight of the test plants.
(§2) Wagner's pots (1/5000 are) were filled with paddy field soil and water was poured therein to make a flooded condition. Rice seedlings of the 3-leaf stage were transplanted and tubers of slender spikerush and arrowhead and the seeds of barnyardgrass, monochoria and broad-leaved weed were sowed therein and grown for 5 days. When germination occurs, a designed amount of the test compound formulated into an emulsifiable concentrate according to Preparation Example 2 was applied to the pots by dripping. The test plants were grown for a further 3 weeks, and herbicidal activity and phytotoxicity were examined. The herbicidal activity was evaluated in figures ranging from 0 to 5. The phytotoxicity to the crop plants was also indicated on the same standard as that of the herbicidal activity.

monochoria = assay: as above; assay type: in vivo, Monochoria vaginalis; details: 3 weeks; further: ranges in brackets are in %
Method: as §1, §2

broad-leaved weed = assay: as above; assay type: in vivo; details: 3 weeks; further: ranges in brackets are in %
Method: as §1, §2

rice plant = assay: Test Example 7, flooded paddy pot dripping, phytotoxicity to rice plant; assay type: in vivo; details: 3 weeks; further: ranges in brackets are in %
Method: as §1, §2

slender spikerush = assay: Test Example 7, flooded paddy pot dripping, herbicidal activity; assay type: in vivo, Eleocharis acicularis; details: 3 weeks; further: ranges in brackets are in %
Method: as §1, §2

arrowhead = assay: as above; assay type: in vivo, Sagittaria pygmaea; details: 3 weeks; further: ranges in brackets are in %
Method: as §1, §2

sicklepod = assay: Test Example 3, soil surface spraying, herbicidal activity; assay type: in vivo, Cassia obtusifolia; details: 20 days; further: ranges in brackets are in %
Method: as §1
(§3) Plastic trays (35 cm×25 cm×15 cm) were filled with upland field soil, and the seeds of tall morningglory, velvetleaf and sicklepod and the seeds of corn were sown therein. A designed amount of the test compounds formulated into a wettable powder according to Preparation Example 1 was dispersed in water and applied by spraying at a spray volume of 5 liters per are to the whole surface of the soil. After the spraying, the test plants were placed in a greenhouse and grown for 20 days, and herbicidal activity and phytotoxicity were examined.

velvetleaf [2] = assay: Test Example 1, foliar treatment, herbicidal activity; assay type: in vivo, Abutilon theophrasti; details: 3 weeks; further: ranges in brackets are in %
Method: as §1
(§4) Plastic beakers (diameter, 10 cm; height, 10 cm) were filled with upland field soil, and the seeds of corn, barnyardgrass, wild oat, wild mustard and velvetleaf were separately sown in the beakers and grown for 2 weeks in the greenhouse. A designed amount of the test compound was sprayed to the foliage of the test plants by means of a small hand sprayer. After the spraying, the test plants were further grown for 3 weeks in the greenhouse, and herbicidal activity was examined. In this foliar treatment, the test compounds were formulated into an emulsifiable concentrate according to Preparation Example 2 and applied at a spray volume of 5 liters per are by dispersing it in water with the addition of a spreading agent.

tall morningglory = assay: Test Example 3, soil surface spraying, herbicidal activity; assay type: in vivo, Ipomoea purpurea; details: 20 days; further: ranges in brackets are in %
Method: as §1, §3

barnyardgrass [3] = assay: Test Example 1, foliar treatment, herbicidal activity; assay type: in vivo, Echinochloa crus-galli; details: 3 weeks; further: ranges in brackets are in %
Method: as §1, §4

wild oat = assay: as above; assay type: in vivo, Avena fatua; details: 3 weeks; further: ranges in brackets are in %
Method: as §1, §4

wild mustard = assay: as above; assay type: in vivo, Brassica kaber; details: 3 weeks
Method: as §1, §4

velvetleaf [4] = assay: Test Example 3, soil surface spraying, herbicidal activity; assay type: in vivo, Abutilon theophrasti; details: 20 days; further: ranges in brackets are in %
Method: as §1, §3

corn [5] = assay: Test Example 1, foliar treatment, phytotoxicity to corn; assay type: in vivo; details: 3 weeks; further: ranges in brackets are in %
Method: as §1, §4

corn [6] = assay: Test Example 3, soil surface spraying, phytotoxicity to corn; assay type: in vivo; details: 20 days; further: ranges in brackets are in %
Method: as §1, §3

SMILES | Herbicidal activity, Barnyardgrass (barnyardgrass [1]; 1.25 g/are) | Herbicidal activity, Barnyardgrass (barnyardgrass [1]; 2.5 g/are) | Herbicidal activity, Barnyardgrass (barnyardgrass [1]; 5 g/are) | Herbicidal activity, Monochoria (monochoria; 1.25 g/are) | Herbicidal activity, Monochoria (monochoria; 2.5 g/are) | Herbicidal activity, Monochoria (monochoria; 5 g/are) | Herbicidal activity, Broad-leaved weed (broad-leaved weed; 1.25 g/are) | Herbicidal activity, Broad-leaved weed (broad-leaved weed; 2.5 g/are) | Herbicidal activity, Broad-leaved weed (broad-leaved weed; 5 g/are) | Phytotoxicity, Rice plant (rice plant; 1.25 g/are) | Phytotoxicity, Rice plant (rice plant; 2.5 g/are) | Phytotoxicity, Rice plant (rice plant; 5 g/are) | Herbicidal activity, Slender spikerush (slender spikerush; 1.25 g/are) | Herbicidal activity, Slender spikerush (slender spikerush; 2.5 g/are) | Herbicidal activity, Slender spikerush (slender spikerush; 5 g/are) | Herbicidal activity, Allowhead (arrowhead; 1.25 g/are) | Herbicidal activity, Allowhead (arrowhead; 2.5 g/are) | Herbicidal activity, Allowhead (arrowhead; 5 g/are) | Herbicidal activity, Sicklepod (sicklepod; 5 g/are) | Herbicidal activity, Sicklepod (sicklepod; 10 g/are) | other results
CCCCCCCCOc1cc(N2C(=O)C3=C(CCCC3)C2=O)c(F)cc1Cl [Compound No. 10] | 3 (50-69) | 4 (70-89) | 5 (90-100) | 5 (90-100) | 5 (90-100) | 5 (90-100) | 5 (90-100) | 5 (90-100) | 5 (90-100) | 0 (0-9) | 0 (0-9) | 0 (0-9) | 3 (50-69) | 3 (50-69) | 4 (70-89) | 3 (50-69) | 4 (70-89) | 4 (70-89) |  |  | 
CCC(C)Oc1cc(N2C(=O)C3=C(CCCC3)C2=O)c(F)cc1Cl (stereo not drawn) [compound 4] |  |  |  |  |  |  |  |  |  |  |  |  |  |  |  |  |  |  | 4 (1-10) | 4 (1-10) | Herbicidal activity, Velvetleaf (velvetleaf [2]; 1.25 g/are): 5 (0); Herbicidal activity, Velvetleaf (velvetleaf [2]; 5 g/are): 5 (0); Herbicidal activity, Tall morningglory (tall morningglory; 5 g/are): 4 (1-10); Herbicidal activity, Tall morningglory (tall morningglory; 10 g/are): 5 (0); Herbicidal activity, Barnyardgrass (barnyardgrass [3]; 1.25 g/are): 1 (41-60); Herbicidal activity, Barnyardgrass (barnyardgrass [3]; 5 g/are): 5 (0); Herbicidal activity, Wild cat (wild oat; 1.25 g/are): 2 (21-40); Herbicidal activity, Wild cat (wild oat; 5 g/are): 5 (0); Herbicidal activity, Wild mustard (wild mustard; 1.25 g/are): 4 (1-10); Herbicidal activity, Wild mustard (wild mustard; 5 g/are): 5 (0); Herbicidal activity, Velvetleaf (velvetleaf [4]; 5 g/are): 5 (0); Herbicidal activity, Velvetleaf (velvetleaf [4]; 10 g/are): 5 (0); Phytotoxicity, Corn (corn [5]; 1.25 g/are): 0 (100); Phytotoxicity, Corn (corn [5]; 5 g/are): 1 (90-99); Phytotoxicity, Corn (corn [6]; 5 g/are): 0 (100); Phytotoxicity, Corn (corn [6]; 10 g/are): 0 (100)
CC(C)COc1cc(N2C(=O)C3=C(CCCC3)C2=O)c(F)cc1Cl [compound 5] |  |  |  |  |  |  |  |  |  |  |  |  |  |  |  |  |  |  | 4 (1-10) | 4 (1-10) | Herbicidal activity, Velvetleaf (velvetleaf [2]; 1.25 g/are): 5 (0); Herbicidal activity, Velvetleaf (velvetleaf [2]; 5 g/are): 5 (0); Herbicidal activity, Tall morningglory (tall morningglory; 5 g/are): 4 (1-10); Herbicidal activity, Tall morningglory (tall morningglory; 10 g/are): 5 (0); Herbicidal activity, Barnyardgrass (barnyardgrass [3]; 1.25 g/are): 2 (21-40); Herbicidal activity, Barnyardgrass (barnyardgrass [3]; 5 g/are): 4 (1-10); Herbicidal activity, Wild cat (wild oat; 1.25 g/are): 1 (41-60); Herbicidal activity, Wild cat (wild oat; 5 g/are): 4 (1-10); Herbicidal activity, Wild mustard (wild mustard; 1.25 g/are): 3 (11-20); Herbicidal activity, Wild mustard (wild mustard; 5 g/are): 5 (0); Herbicidal activity, Velvetleaf (velvetleaf [4]; 5 g/are): 5 (0); Herbicidal activity, Velvetleaf (velvetleaf [4]; 10 g/are): 5 (0); Phytotoxicity, Corn (corn [5]; 1.25 g/are): 0 (100); Phytotoxicity, Corn (corn [5]; 5 g/are): 0 (100); Phytotoxicity, Corn (corn [6]; 5 g/are): 0 (100); Phytotoxicity, Corn (corn [6]; 10 g/are): 0 (100)
CCCCOc1cc(N2C(=O)C3=C(CCCC3)C2=O)c(F)cc1Cl [compound 6] |  |  |  |  |  |  |  |  |  |  |  |  |  |  |  |  |  |  | 4 (1-10) | 4 (1-10) | Herbicidal activity, Velvetleaf (velvetleaf [2]; 1.25 g/are): 5 (0); Herbicidal activity, Velvetleaf (velvetleaf [2]; 5 g/are): 5 (0); Herbicidal activity, Tall morningglory (tall morningglory; 5 g/are): 4 (1-10); Herbicidal activity, Tall morningglory (tall morningglory; 10 g/are): 4 (1-10); Herbicidal activity, Barnyardgrass (barnyardgrass [3]; 1.25 g/are): 3 (11-20); Herbicidal activity, Barnyardgrass (barnyardgrass [3]; 5 g/are): 4 (1-10); Herbicidal activity, Wild cat (wild oat; 1.25 g/are): 1 (41-60); Herbicidal activity, Wild cat (wild oat; 5 g/are): 3 (11-20); Herbicidal activity, Wild mustard (wild mustard; 1.25 g/are): 4 (1-10); Herbicidal activity, Wild mustard (wild mustard; 5 g/are): 5 (0); Herbicidal activity, Velvetleaf (velvetleaf [4]; 5 g/are): 5 (0); Herbicidal activity, Velvetleaf (velvetleaf [4]; 10 g/are): 5 (0); Phytotoxicity, Corn (corn [5]; 1.25 g/are): 0 (100); Phytotoxicity, Corn (corn [5]; 5 g/are): 0 (100); Phytotoxicity, Corn (corn [6]; 5 g/are): 0 (100); Phytotoxicity, Corn (corn [6]; 10 g/are): 0 (100)
CCCCCCOc1cc(N2C(=O)C3=C(CCCC3)C2=O)c(F)cc1Cl [compound 8] | 4 (70-89) | 5 (90-100) | 5 (90-100) | 5 (90-100) | 5 (90-100) | 5 (90-100) | 5 (90-100) | 5 (90-100) | 5 (90-100) | 0 (0-9) | 0 (0-9) | 0 (0-9) | 4 (70-89) | 4 (70-89) | 5 (90-100) | 4 (70-89) | 5 (90-100) | 5 (90-100) |  |  | 
CCCCCCCOc1cc(N2C(=O)C3=C(CCCC3)C2=O)c(F)cc1Cl [compound 9] | 4 (70-89) | 4 (70-89) | 5 (90-100) | 5 (90-100) | 5 (90-100) | 5 (90-100) | 5 (90-100) | 5 (90-100) | 5 (90-100) | 0 (0-9) | 0 (0-9) | 0 (0-9) | 3 (50-69) | 4 (70-89) | 4 (70-89) | 3 (50-69) | 4 (70-89) | 4 (70-89) |  |  | 
CC(C)CCOc1cc(N2C(=O)C3=C(CCCC3)C2=O)c(F)cc1Cl [compound 11] | 4 (70-89) | 5 (90-100) | 5 (90-100) | 5 (90-100) | 5 (90-100) | 5 (90-100) | 5 (90-100) | 5 (90-100) | 5 (90-100) | 0 (0-9) | 0 (0-9) | 0 (0-9) | 4 (70-89) | 4 (70-89) | 5 (90-100) | 3 (50-69) | 4 (70-89) | 5 (90-100) |  |  | 
